For test [1], the target named is T1, Adenosine kinase (Rattus norvegicus, UniProt Q64640). Briefly: Inhibitory activity against cytosolic adenosine kinase by ADO phosphorylation assay.
Test [2] deals with T1, Adenosine kinase. Briefly: Inhibitory activity against intact cell adenosine kinase by ADO phosphorylation assay.
The test system of test [3] is Rattus norvegicus. Briefly: Tested for analgesic activity in vivo rat formalin nociception assay, administered by intraperitoneal injection to six animals at each dose. p<0.05. Type of test: functional. The conditions noted are these: ip.
Test [4] deals with Rattus norvegicus. Briefly: Tested for analgesic activity in vivo rat carrageenan hyperalgesia assay, administered by intraperitoneal injection to six animals at each dose. p<0.05. The conditions noted are these: ip. Type of test: functional.

Structures are written as SMILES.

T1 sequence (Q64640 whole entry): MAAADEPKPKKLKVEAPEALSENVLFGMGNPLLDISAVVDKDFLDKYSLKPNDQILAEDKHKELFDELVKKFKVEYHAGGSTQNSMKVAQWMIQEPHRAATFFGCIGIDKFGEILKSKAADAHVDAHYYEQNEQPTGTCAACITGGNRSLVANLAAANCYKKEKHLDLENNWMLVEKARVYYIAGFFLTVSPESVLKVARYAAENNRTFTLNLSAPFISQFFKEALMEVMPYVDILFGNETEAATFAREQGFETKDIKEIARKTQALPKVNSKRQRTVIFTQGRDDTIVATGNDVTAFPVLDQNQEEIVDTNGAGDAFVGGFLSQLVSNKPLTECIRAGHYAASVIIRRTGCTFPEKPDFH

In the case of `CN(C)c1ccc(-c2cc(-c3cccc(C(F)(F)F)c3)c3c(N)ncnc3n2)cc1`, the IC50 against Adenosine kinase [1] amounted to 36 nM; against Adenosine kinase [2] it was 225 nM.

As for `CC(c1ccccc1Br)c1cc(-c2ccc(N3CCOCC3)nc2)nc2ncnc(N)c12` (stereo not drawn), the ED50 in the test with Rattus norvegicus [3] and in the test with Rattus norvegicus [4] was 10 µmol/kg throughout. For the same compound, the IC50 on Adenosine kinase [1] is 0.25 nM; at Adenosine kinase [2], 30 nM.

With `CCC(CC)c1cc(-c2ccc(N3CCOCC3)nc2)nc2ncnc(N)c12`, the IC50 on Adenosine kinase [1] came out at 9 nM; against Adenosine kinase [2], 115 nM. In the test with Rattus norvegicus [4], this compound gave an ED50 of 30 µmol/kg.

For `Nc1ncnc2nc(-c3ccc(N4CCOCC4)nc3)cc(C3CCOCC3)c12`, the ED50 is 30 µmol/kg in the test on Rattus norvegicus [3] and above 2 µmol/kg with Rattus norvegicus [4]. In addition, the IC50 on Adenosine kinase [1] was 17 nM; on Adenosine kinase [2] it was 800 nM.

In the case of `Cc1cc(-c2ccc(N(C)C)cc2)nc2ncnc(N)c12`, the IC50 on Adenosine kinase [1] is 47 nM; on Adenosine kinase [2], above 1000 nM.

In the case of `C=CC(C)(C)c1cc(-c2ccc(N3CCOCC3)nc2)nc2ncnc(N)c12`, the IC50 against Adenosine kinase [1] came out at 21 nM; at Adenosine kinase [2], 304 nM.

For the compound `CC1CC(C)CC(c2cc(-c3ccc(N4CCOCC4)nc3)nc3ncnc(N)c23)C1` (stereo not drawn), the ED50 in the test on Rattus norvegicus [3] was above 30 µmol/kg; with Rattus norvegicus [4], 30 µmol/kg. The figures for the IC50 against Adenosine kinase [1] and at Adenosine kinase [2] were 0.23 nM and 102 nM, respectively.

On to `Nc1ncnc2nc(-c3ccc(N4CCOCC4)nc3)cc(Cc3ccccc3Br)c12`, for which the results for the ED50 in the test on Rattus norvegicus [3] and in the test on Rattus norvegicus [4] were 30 µmol/kg and 3 µmol/kg, respectively. The IC50 is 0.17 nM against Adenosine kinase [1] and 33 nM against Adenosine kinase [2].

With `COc1cccc(-c2cc(-c3ccc(N(C)C)cc3)nc3ncnc(N)c23)c1`, the IC50 on Adenosine kinase [1] came to 85 nM; against Adenosine kinase [2] it was 400 nM.

In turn, `Nc1ncnc2nc(-c3ccc(N4CCOCC4)nc3)cc(-c3ccc(Br)cc3)c12` returned an ED50 in the test on Rattus norvegicus [3] of 30 µmol/kg. Further, the IC50 on Adenosine kinase [1] was 30 nM; on Adenosine kinase [2], 430 nM.

Turning to `CCCCc1cc(-c2ccc(N(C)C)cc2)nc2ncnc(N)c12`, the IC50 at Adenosine kinase [1] worked out at 11 nM; against Adenosine kinase [2] it was 550 nM.

Turning to `CN(C)c1ccc(-c2cc(C3CC3)c3c(N)ncnc3n2)cc1`, the IC50 came out at 55 nM at Adenosine kinase [1] and 825 nM against Adenosine kinase [2].

On to `Nc1ncnc2nc(-c3ccc(N4CCOCC4)nc3)cc(-c3cccnc3)c12`, for which the IC50 against Adenosine kinase [1] was 62 nM; against Adenosine kinase [2], 315 nM. In the test with Rattus norvegicus [4], the ED50 was above 30 µmol/kg.

`CN(C)c1ccc(-c2cc(-c3cccc(Cl)c3)c3c(N)ncnc3n2)cc1`: the figures for the IC50 at Adenosine kinase [1] and at Adenosine kinase [2] were 15 nM and 78 nM, respectively.

For `CN(C)c1ccc(-c2cc(-c3cccc(C(N)=O)c3)c3c(N)ncnc3n2)cc1`, the results for the IC50 at Adenosine kinase [1] and on Adenosine kinase [2] were 77 nM and 850 nM, respectively.

As to `Nc1ncnc2nc(-c3ccc(N4CCOCC4)nc3)ccc12`, the IC50 on Adenosine kinase [1] is 562 nM; against Adenosine kinase [2] it was above 1000 nM.

For `CN(C)c1ccc(-c2cc(-c3cccc(C#N)c3)c3c(N)ncnc3n2)cc1`, the IC50 was found to be 35 nM against Adenosine kinase [1] and 325 nM against Adenosine kinase [2].

Turning to `CN(C)c1ccc(-c2cc(C3CCCCC3)c3c(N)ncnc3n2)cc1`, the IC50 at Adenosine kinase [1] came to 8 nM; against Adenosine kinase [2], 470 nM.

Take `CN(C)c1ccc(-c2ccc3c(N)ncnc3n2)cc1`: the IC50 is 733 nM against Adenosine kinase [1] and above 10000 nM at Adenosine kinase [2].

`Nc1ncnc2nc(-c3ccc(N4CCOCC4)nc3)cc(-c3cc(Cl)ccc3Cl)c12`: the IC50 against Adenosine kinase [1] was determined as 38 nM; against Adenosine kinase [2], 378 nM.

Turning to `CN(C)c1ccc(-c2cc(-c3cccc(I)c3)c3c(N)ncnc3n2)cc1`, the IC50 is 17 nM at Adenosine kinase [1] and 120 nM at Adenosine kinase [2].

For `Nc1ncnc2nc(-c3ccc(N4CCOCC4)nc3)cc(-c3cccc(Cl)c3Cl)c12`, the IC50 came out at 5 nM on Adenosine kinase [1] and 130 nM against Adenosine kinase [2]. This compound yielded an ED50 with Rattus norvegicus [4] of 5 µmol/kg.

In the case of `Nc1ncnc2nc(-c3ccc(N4CCOCC4)nc3)cc(C3CCCCC3)c12`, the ED50 came to 20 µmol/kg in the test on Rattus norvegicus [3] and 10 µmol/kg with Rattus norvegicus [4]. In addition, the IC50 against Adenosine kinase [1] was found to be 3 nM; against Adenosine kinase [2] it was 57 nM.

Take `Nc1ncnc2nc(-c3ccc(N4CCOCC4)nc3)cc(-c3ccco3)c12`: the IC50 at Adenosine kinase [1] was determined as 10 nM; at Adenosine kinase [2], 488 nM.

Consider `Nc1ncnc2nc(-c3ccc(N4CCOCC4)nc3)cc(-c3ccsc3)c12`, for which the IC50 against Adenosine kinase [1] stood at 13 nM; at Adenosine kinase [2], 550 nM.

On to `Nc1ncnc2nc(-c3ccc(N4CCOCC4)nc3)cc(C3CCCC3)c12`, for which the IC50 at Adenosine kinase [1] was 2 nM; on Adenosine kinase [2], 80 nM. In the test on Rattus norvegicus [4], this compound came in with an ED50 of 10 µmol/kg.

Turning to `Nc1ncnc2nc(-c3ccc(N4CCOCC4)nc3)cc(-c3ccccc3Br)c12`, the values for the ED50 with Rattus norvegicus [3] and in the test with Rattus norvegicus [4] were 10 µmol/kg and 30 µmol/kg, respectively. For the same compound, the 50% inhibitory concentration (IC50) is 3 nM on Adenosine kinase [1] and 675 nM against Adenosine kinase [2].

With `Nc1ncnc2nc(-c3ccc(N4CCOCC4)nc3)cc(-c3cccc(Cl)c3)c12`, the figures for the ED50 in the test with Rattus norvegicus [3] and with Rattus norvegicus [4] were 10 µmol/kg and 20 µmol/kg, respectively. In addition, the IC50 is 9 nM against Adenosine kinase [1] and 96 nM against Adenosine kinase [2].

Regarding `CN(C)c1ccc(-c2cc(-c3cccc(O)c3)c3c(N)ncnc3n2)cc1`, the IC50 on Adenosine kinase [1] is 44 nM; against Adenosine kinase [2], 353 nM.

For `Nc1ncnc2nc(-c3ccc(N4CCOCC4)nc3)cc(-c3cccc(Br)c3)c12`, the values for the ED50 in the test with Rattus norvegicus [3] and in the test on Rattus norvegicus [4] were 25 µmol/kg and 0.6 µmol/kg, respectively. In addition, the results for the IC50 at Adenosine kinase [1] and at Adenosine kinase [2] were 2 nM and 50 nM, respectively.

Turning to `CN(C)c1ccc(-c2cnc3c(N)ncnc3n2)cc1`, half-maximal inhibition on Adenosine kinase [1] (IC50) was put at 400 nM. This counts as sub-micromolar.

In the case of `CN(C)c1ccc(-c2cc(-c3ccccc3)c3c(N)ncnc3n2)cc1`, the IC50 at Adenosine kinase [1] was found to be 7 nM; at Adenosine kinase [2], 470 nM.

In the case of `CN(C)c1ccc(-c2cc(-c3cccc(Br)c3)c3c(N)ncnc3n2)cc1`, the ED50 in the test with Rattus norvegicus [3] is 0.7 µmol/kg; with Rattus norvegicus [4], 30 µmol/kg. In addition, the IC50 against Adenosine kinase [1] was 5 nM; against Adenosine kinase [2], 170 nM.

The values are drawn from ChEMBL document CHEMBL1134053, “Structure-activity studies of 5-substituted pyridopyrimidines as adenosine kinase inhibitors” (Bioorg Med Chem Lett, 2001).
